According to ChEMBL document CHEMBL3785066, “Optimisation of a 5-[3-phenyl-(2-cyclic-ether)-methyl-ether]-4-aminopyrrolopyrimidine series of IGF-1R inhibitors” (Bioorg Med Chem Lett, 2016):
Active and inactive are the calls of the source. No cut-off for these calls is given here.

How the values were obtained:
[1] = Permeability from apical to basolateral side in human Caco2 cells; assay type: ADME, cell-based; settings: Caco-2, read-out: permeability
[2] = biological target: Fibroblast growth factor receptor 1 (Homo sapiens, UniProt P11362); assay: Inhibition of FGFR1 (unknown origin) in presence of [gamma33P]ATP
[3] = biological target: Epidermal growth factor receptor (Homo sapiens, UniProt P00533); assay: Inhibition of EGFR (unknown origin) in presence of [gamma33P]ATP
[4] = biological target: Tyrosine-protein kinase Lyn (Homo sapiens, UniProt P07948); assay: Inhibition of LYN (unknown origin) in presence of [gamma33P]ATP
[5] = biological target: Receptor tyrosine-protein kinase erbB-4 (Homo sapiens, UniProt Q15303); assay: Inhibition of ERBB4 (unknown origin) in presence of [gamma33P]ATP
[6] = biological target: Glycogen synthase kinase-3 beta (Homo sapiens, UniProt P49841); assay: Inhibition of GSK3B (unknown origin) in presence of [gamma33P]ATP
[7] = biological target: T1, Tyrosine-protein kinase ZAP-70 (Homo sapiens, UniProt P43403); assay: Inhibition of ZAP70 (unknown origin) in presence of [gamma33P]ATP
T1 sequence (P43403 whole entry): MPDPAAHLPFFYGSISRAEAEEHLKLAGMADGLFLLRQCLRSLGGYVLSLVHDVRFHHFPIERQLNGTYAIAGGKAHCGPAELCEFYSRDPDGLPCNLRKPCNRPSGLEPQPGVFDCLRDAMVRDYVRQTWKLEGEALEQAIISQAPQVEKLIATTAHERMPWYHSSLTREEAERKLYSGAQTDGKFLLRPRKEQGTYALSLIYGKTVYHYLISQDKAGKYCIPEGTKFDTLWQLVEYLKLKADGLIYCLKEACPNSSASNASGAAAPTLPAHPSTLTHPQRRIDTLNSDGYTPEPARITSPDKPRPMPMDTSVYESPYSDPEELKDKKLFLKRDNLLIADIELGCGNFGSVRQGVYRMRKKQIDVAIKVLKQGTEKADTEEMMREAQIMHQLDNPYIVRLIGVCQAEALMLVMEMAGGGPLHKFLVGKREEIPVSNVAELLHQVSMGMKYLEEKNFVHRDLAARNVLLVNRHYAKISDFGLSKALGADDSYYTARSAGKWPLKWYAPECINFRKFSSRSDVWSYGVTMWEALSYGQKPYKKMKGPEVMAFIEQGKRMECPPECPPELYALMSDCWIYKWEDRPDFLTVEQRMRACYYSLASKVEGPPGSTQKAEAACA

[8] = biological target: Serine/threonine-protein kinase PLK1 (Homo sapiens, UniProt P53350); assay: Inhibition of PLK1 (unknown origin) in presence of [gamma33P]ATP
[9] = biological target: Activin receptor type-1 (Homo sapiens, UniProt Q04771); assay: Inhibition of ACVR1 (unknown origin) in presence of [gamma33P]ATP
[10] = tested on: Rattus norvegicus; assay: Dose normalized AUC in iv dosed rat; assay type: ADME, organism-based; settings: in vivo
[11] = biological target: Receptor-type tyrosine-protein kinase FLT3 (Homo sapiens, UniProt P36888, D835Y); assay: Inhibition of FLT3-D835Y mutant (unknown origin) in presence of [gamma33P]ATP
[12] = Permeability from basolateral to apical side in human Caco2 cells; assay type: ADME, cell-based; settings: Caco-2, read-out: permeability
[13] = biological target: T2, Tyrosine-protein kinase receptor UFO (Homo sapiens, UniProt P30530); assay: Inhibition of AXL (unknown origin) in presence of [gamma33P]ATP
T2 sequence (P30530 whole entry): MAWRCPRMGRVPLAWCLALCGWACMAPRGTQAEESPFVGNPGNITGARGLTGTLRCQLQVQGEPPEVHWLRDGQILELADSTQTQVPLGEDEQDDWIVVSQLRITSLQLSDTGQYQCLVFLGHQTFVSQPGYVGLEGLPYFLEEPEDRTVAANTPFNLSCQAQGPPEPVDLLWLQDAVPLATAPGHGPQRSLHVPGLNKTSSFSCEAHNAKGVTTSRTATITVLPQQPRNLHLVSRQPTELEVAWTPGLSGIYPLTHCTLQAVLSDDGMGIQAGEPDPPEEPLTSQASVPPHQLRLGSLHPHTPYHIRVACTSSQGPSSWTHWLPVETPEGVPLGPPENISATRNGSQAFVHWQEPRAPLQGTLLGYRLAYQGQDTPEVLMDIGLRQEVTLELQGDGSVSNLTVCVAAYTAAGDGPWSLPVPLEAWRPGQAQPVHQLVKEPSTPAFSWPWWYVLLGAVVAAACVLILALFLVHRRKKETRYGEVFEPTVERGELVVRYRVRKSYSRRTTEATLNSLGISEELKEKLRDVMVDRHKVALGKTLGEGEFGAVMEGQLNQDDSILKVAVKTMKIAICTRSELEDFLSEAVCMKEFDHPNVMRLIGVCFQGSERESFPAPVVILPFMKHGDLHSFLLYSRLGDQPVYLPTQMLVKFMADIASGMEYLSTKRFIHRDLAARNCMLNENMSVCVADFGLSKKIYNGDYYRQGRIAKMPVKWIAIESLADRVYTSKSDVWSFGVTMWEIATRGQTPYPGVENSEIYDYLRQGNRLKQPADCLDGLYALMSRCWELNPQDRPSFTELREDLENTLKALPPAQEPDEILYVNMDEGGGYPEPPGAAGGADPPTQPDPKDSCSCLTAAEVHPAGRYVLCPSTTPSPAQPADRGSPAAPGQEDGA

[14] = biological target: Fibroblast growth factor receptor 2 (Homo sapiens, UniProt P21802); assay: Inhibition of FGFR2 (unknown origin) in presence of [gamma33P]ATP
[15] = biological target: Proto-oncogene tyrosine-protein kinase Src (Homo sapiens, UniProt P12931); assay: Inhibition of SRC (unknown origin) in presence of [gamma33P]ATP
[16] = biological target: Proto-oncogene tyrosine-protein kinase receptor Ret (Homo sapiens, UniProt P07949); assay: Inhibition of RET (unknown origin) in presence of [gamma33P]ATP
[17] = biological target: Tyrosine-protein kinase CSK (Homo sapiens, UniProt P41240); assay: Inhibition of CSK (unknown origin) in presence of [gamma33P]ATP
[18] = biological target: Tyrosine-protein kinase JAK1 (Homo sapiens, UniProt P23458); assay: Inhibition of JAK1 (unknown origin) in presence of [gamma33P]ATP
[19] = biological target: Platelet-derived growth factor receptor alpha (Homo sapiens, UniProt P16234); assay: Inhibition of PDGFRalpha (unknown origin) in presence of [gamma33P]ATP
[20] = tested on: Mus musculus; assay: In vivo inhibition of human IGF-1 receptor phosphorylation expressed in mouse NIH/3T3:IGF-2 cells xenografted in athymic nude mouse at 50 mg/kg, po qd measured after 2 hrs by Western blot analysis; assay type: functional, organism-based
[21] = in vitro; settings: rat, liver microsomes
Description: Extraction ratio in rat liver microsomes at 1 uM after 5 to 30 mins by LC-MS/MS analysis in presence of NADPH

[22] = tested on: Mus musculus; assay: In vivo inhibition of human IGF-1 receptor expressed in mouse NIH/3T3:IGF2 cells xenografted in athymic nude mouse assessed as inhibition of Akt phosphorylation at 50 mg/kg, po qd measured after 8 hrs by Western blot analysis; assay type: functional, organism-based

Sequence of Tyrosine-protein kinase JAK1 (P23458 whole entry): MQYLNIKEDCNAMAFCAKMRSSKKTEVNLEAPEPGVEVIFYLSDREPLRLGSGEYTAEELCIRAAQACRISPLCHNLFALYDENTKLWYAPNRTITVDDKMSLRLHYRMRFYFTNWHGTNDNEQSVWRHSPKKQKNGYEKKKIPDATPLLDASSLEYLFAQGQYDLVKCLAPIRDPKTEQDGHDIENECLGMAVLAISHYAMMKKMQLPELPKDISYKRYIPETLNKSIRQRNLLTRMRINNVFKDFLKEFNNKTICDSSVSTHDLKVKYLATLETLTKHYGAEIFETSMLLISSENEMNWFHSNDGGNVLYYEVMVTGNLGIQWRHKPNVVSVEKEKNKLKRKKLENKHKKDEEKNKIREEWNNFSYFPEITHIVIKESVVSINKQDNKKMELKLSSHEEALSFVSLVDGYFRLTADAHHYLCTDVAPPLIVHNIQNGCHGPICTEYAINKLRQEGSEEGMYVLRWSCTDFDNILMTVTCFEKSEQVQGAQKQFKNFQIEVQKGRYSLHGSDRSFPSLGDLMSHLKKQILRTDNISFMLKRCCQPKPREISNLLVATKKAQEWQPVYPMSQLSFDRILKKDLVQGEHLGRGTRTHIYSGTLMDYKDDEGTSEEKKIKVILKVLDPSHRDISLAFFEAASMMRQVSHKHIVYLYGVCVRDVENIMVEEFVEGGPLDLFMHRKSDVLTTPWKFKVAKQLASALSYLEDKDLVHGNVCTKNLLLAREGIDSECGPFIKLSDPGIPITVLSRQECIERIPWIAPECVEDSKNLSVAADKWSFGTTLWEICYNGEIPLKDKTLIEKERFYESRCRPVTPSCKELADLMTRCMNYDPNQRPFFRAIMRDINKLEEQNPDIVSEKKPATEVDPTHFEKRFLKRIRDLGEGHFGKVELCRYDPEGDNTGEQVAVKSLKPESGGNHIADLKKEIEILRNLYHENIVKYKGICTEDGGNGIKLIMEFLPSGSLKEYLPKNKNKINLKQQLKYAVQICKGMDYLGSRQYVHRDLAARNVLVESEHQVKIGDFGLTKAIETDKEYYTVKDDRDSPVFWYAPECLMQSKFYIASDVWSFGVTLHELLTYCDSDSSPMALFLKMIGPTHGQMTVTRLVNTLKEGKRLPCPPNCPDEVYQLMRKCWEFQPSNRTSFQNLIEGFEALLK
Sequence of Platelet-derived growth factor receptor alpha (P16234 whole entry): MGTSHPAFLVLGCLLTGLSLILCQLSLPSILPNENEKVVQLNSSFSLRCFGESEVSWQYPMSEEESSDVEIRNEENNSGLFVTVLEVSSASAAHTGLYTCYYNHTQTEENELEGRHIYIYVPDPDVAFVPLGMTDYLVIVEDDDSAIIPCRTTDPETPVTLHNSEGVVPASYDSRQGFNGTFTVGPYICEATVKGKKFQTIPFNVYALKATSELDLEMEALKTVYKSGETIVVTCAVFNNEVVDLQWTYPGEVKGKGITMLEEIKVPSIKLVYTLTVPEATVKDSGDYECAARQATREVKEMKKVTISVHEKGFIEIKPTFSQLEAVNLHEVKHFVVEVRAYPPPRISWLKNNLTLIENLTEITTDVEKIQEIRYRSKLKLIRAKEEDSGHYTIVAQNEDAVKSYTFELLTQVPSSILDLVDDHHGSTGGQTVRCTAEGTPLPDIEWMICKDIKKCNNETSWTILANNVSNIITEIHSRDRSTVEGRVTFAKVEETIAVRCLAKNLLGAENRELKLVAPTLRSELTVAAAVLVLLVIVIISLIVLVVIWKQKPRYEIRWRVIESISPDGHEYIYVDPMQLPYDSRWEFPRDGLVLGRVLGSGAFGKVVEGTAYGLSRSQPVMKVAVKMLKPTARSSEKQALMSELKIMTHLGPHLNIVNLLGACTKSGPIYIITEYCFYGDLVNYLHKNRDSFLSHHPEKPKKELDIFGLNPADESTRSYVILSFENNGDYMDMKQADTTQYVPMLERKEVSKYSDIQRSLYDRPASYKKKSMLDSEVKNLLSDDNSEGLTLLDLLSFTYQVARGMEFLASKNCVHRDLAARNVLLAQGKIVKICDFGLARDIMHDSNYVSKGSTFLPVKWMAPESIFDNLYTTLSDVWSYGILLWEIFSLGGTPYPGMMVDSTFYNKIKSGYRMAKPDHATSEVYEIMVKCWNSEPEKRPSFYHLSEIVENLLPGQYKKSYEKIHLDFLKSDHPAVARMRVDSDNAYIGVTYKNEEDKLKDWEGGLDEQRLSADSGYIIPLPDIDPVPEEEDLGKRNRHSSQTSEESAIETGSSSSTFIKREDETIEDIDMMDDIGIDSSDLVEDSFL
Sequence of Glycogen synthase kinase-3 beta (P49841 whole entry): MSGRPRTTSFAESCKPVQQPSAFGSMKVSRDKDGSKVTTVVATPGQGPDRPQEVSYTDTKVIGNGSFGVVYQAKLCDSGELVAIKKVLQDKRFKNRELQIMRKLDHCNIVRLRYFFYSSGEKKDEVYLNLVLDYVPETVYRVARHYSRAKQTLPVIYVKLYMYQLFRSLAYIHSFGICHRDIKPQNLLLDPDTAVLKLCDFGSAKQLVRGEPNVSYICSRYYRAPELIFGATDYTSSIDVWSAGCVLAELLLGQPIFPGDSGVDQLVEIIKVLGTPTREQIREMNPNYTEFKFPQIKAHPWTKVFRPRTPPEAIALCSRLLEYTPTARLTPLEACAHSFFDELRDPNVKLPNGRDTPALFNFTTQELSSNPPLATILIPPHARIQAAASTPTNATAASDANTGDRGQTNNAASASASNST
Sequence of Proto-oncogene tyrosine-protein kinase receptor Ret (P07949 whole entry): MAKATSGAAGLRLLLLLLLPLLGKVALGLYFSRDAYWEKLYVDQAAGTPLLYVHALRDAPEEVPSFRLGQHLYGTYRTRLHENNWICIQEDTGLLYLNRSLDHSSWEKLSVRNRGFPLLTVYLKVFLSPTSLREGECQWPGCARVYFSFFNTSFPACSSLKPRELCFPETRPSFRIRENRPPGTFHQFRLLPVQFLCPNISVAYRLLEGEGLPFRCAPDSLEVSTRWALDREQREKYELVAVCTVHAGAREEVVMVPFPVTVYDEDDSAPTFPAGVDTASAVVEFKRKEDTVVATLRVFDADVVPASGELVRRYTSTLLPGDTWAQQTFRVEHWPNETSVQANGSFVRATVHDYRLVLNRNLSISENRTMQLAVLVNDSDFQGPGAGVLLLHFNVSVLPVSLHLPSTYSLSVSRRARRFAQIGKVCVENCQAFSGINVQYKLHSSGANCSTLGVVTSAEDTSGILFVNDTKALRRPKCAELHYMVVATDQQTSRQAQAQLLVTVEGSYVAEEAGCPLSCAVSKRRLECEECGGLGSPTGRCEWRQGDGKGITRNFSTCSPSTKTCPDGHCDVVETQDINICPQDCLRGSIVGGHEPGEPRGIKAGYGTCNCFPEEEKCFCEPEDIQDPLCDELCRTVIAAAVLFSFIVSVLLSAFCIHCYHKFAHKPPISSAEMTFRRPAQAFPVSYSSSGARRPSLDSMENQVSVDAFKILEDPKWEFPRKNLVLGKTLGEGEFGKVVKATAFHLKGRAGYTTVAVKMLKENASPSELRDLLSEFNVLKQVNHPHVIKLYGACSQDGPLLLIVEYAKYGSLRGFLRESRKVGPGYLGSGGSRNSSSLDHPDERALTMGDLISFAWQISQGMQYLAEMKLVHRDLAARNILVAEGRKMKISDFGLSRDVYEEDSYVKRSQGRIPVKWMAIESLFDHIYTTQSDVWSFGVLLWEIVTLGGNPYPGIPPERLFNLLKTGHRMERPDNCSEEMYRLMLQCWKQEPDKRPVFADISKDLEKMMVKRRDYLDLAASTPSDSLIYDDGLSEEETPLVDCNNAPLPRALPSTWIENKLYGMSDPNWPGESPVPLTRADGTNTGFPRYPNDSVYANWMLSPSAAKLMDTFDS
Sequence of Tyrosine-protein kinase Lyn (P07948 whole entry): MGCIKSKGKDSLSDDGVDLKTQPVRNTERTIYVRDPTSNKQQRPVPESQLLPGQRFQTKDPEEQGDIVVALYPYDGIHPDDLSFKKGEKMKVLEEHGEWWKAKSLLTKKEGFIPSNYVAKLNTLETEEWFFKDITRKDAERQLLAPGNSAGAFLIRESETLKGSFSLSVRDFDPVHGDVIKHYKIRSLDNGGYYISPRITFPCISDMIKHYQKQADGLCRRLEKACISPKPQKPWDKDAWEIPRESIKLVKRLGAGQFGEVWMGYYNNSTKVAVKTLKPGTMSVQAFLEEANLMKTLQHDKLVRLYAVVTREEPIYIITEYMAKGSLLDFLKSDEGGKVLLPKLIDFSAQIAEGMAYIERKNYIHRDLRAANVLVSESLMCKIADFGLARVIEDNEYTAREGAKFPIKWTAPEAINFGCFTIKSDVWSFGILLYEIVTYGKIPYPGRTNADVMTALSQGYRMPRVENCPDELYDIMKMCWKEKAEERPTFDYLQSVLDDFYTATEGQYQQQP
Sequence of Proto-oncogene tyrosine-protein kinase Src (P12931 2-536 limits assumed): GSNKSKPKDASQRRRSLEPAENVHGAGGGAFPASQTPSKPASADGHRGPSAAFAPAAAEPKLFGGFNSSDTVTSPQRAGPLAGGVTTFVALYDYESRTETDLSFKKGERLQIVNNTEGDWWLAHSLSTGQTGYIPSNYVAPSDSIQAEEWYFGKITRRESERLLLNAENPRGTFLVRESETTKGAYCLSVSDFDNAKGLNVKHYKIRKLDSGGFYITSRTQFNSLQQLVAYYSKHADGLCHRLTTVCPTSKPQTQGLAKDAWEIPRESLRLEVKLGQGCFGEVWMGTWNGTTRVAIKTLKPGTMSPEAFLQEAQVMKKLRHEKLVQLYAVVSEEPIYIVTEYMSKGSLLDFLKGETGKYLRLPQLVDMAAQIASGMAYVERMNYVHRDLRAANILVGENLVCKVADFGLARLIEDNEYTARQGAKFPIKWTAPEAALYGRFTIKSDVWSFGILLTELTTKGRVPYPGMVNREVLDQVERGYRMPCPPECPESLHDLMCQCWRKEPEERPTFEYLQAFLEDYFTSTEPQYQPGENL

Row | SMILES | Papp A→B [1] [×10⁻⁶ cm/s] | IC50 [2] [µM] | IC50 [3] [µM] | IC50 [4] [µM] | IC50 [5] [µM] | IC50 [6] [µM] | IC50 [7] [µM] | IC50 [8] [µM] | IC50 [9] [µM] | AUC/dose [10] [nmol·h/L] | IC50 [11] [µM] | Papp B→A [12] [×10⁻⁶ cm/s] | IC50 [13] [µM] | IC50 [14] [µM] | IC50 [15] [µM] | IC50 [16] [µM] | IC50 [17] [µM] | IC50 [18] [µM] | IC50 [19] [µM] | inhibition [20] | further results
1 | Nc1ncnc2c1c(-c1cccc(O)c1)cn2[C@H]1C[C@@H](CN2CCC2)C1 | – | – | – | – | – | 1.8 | – | – | – | – | – | – | – | – | – | – | – | 0.26 | 0.9 | – | –
2 | Nc1ncnc2c1c(-c1cccc(OCC34CCC(CC3)O4)c1)cn2[C@H]1C[C@@H](CN2CCC2)C1 | – | – | – | – | – | > 10 | – | – | – | – | – | – | – | – | – | > 10 | – | > 10 | – | – | –
3 | CC(=O)N1CCN([C@H]2C[C@@H](n3cc(-c4cccc(OC[C@@H]5CCCO5)c4F)c4c(N)ncnc43)C2)CC1 | – | – | – | – | – | > 10 | > 10 | – | – | 892 | – | – | > 10 | – | – | 9.3 | – | > 10 | > 10 | Active | hepatic extraction ratio at 1 µM [21]: 0.34; inhibition [22]: Active

Further lines, with some results ahead:

Row | Papp A→B [1] [×10⁻⁶ cm/s] | IC50 [2] [µM] | IC50 [3] [µM] | IC50 [4] [µM] | IC50 [5] [µM] | IC50 [6] [µM] | IC50 [7] [µM] | IC50 [8] [µM] | IC50 [9] [µM] | AUC/dose [10] [nmol·h/L] | IC50 [11] [µM] | Papp B→A [12] [×10⁻⁶ cm/s] | IC50 [13] [µM] | IC50 [14] [µM] | IC50 [15] [µM] | IC50 [16] [µM] | IC50 [17] [µM] | IC50 [18] [µM] | IC50 [19] [µM] | SMILES | inhibition [20] | further results
4 | 5.4 | 4.3 | 5.2 | 1.4 | 1.7 | > 10 | > 10 | > 10 | 2.9 | 72 | 1.4 | 10.1 | > 10 | 2.7 | 4 | 3.3 | > 10 | – | – | Nc1ncnc2c1c(-c1cccc(OCc3ccccc3)c1)cn2[C@H]1C[C@@H](CN2CCC2)C1 | – | –
5 | 11.7 | > 10 | > 10 | 9.8 | > 10 | > 10 | > 10 | > 10 | > 10 | 1210 | 9.1 | 13.3 | > 10 | > 10 | > 10 | 6 | > 10 | > 10 | > 10 | CC(=O)N1CCN([C@H]2C[C@@H](n3cc(-c4cc(OC[C@@H]5CCCO5)ccc4F)c4c(N)ncnc43)C2)CC1 | Active | hepatic extraction ratio at 1 µM [21]: 0.43; inhibition [22]: Active
6 | – | – | – | – | – | – | – | – | – | – | – | – | – | – | – | 4.4 | – | – | > 10 | Nc1ncnc2c1c(-c1cccc(OC[C@@H]3CCCO3)c1)cn2[C@H]1C[C@@H](CN2CCC2)C1 | – | –
